Experimental data published in patent US10556907B2 (AbbVie Inc., priority 2015, dated 2020).
Structures can show the parent of a compound that is named as a salt.

Legend:
Test in all cases: Method 1: intracellular Ca2+ release (FLIPR, Calcium 5) in recombinant CHO-K1 cells
Format in all cases: cell-based
human S1PR4 receptor = target: T1, human S1PR4 receptor (Homo sapiens, UniProt O95977); details: (1): determined with method 1; read-out: S1P4 EC50
T1 construct: host or cells: CHO-K1
T1 sequence (O95977 1-384): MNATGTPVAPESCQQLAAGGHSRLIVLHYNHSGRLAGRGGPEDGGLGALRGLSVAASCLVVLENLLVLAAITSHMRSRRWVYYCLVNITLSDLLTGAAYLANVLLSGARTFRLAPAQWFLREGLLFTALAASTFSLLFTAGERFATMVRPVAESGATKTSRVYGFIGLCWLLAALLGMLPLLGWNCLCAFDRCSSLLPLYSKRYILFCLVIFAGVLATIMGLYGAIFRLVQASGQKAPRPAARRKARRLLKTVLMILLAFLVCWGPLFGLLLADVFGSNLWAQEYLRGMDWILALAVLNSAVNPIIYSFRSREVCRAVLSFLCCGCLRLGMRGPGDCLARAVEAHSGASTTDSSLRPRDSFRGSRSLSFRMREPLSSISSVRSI
Procedure, shortened: (§1)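 Agonist EC50; CHO-K1 + Gq/i5 + aequorin; Calcium 5 dye 1 h 37 °C, 45 min RT; serial-dilution compound add; FLIPR read; normalized to phospho-fingolimod.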

human S1PR5 receptor = target: T2, human S1PR5 receptor (Homo sapiens, UniProt Q9H228); details: agonist potency, determined with method 1 (symbols A-D); read-out: S1P5 EC50 range
T2 construct: host or cells: CHO-K1
T2 sequence (Q9H228 whole entry): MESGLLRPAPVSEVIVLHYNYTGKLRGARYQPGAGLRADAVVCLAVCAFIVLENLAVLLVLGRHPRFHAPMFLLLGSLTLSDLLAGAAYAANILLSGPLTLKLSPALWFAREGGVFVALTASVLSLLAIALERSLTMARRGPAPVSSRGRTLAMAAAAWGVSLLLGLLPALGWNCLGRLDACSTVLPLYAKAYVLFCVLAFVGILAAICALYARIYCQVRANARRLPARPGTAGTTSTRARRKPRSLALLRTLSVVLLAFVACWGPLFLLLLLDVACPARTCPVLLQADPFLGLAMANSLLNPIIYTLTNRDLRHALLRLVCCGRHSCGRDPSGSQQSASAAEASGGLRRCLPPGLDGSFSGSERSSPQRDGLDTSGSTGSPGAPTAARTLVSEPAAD
Procedure, shortened: as §1

human S1PR1 receptor = target: T3, human S1PR1 receptor (Homo sapiens, UniProt P21453); details: (1): determined with method 1; read-out: S1P1 EC50
T3 construct: host or cells: CHO-K1
T3 sequence (P21453 whole entry): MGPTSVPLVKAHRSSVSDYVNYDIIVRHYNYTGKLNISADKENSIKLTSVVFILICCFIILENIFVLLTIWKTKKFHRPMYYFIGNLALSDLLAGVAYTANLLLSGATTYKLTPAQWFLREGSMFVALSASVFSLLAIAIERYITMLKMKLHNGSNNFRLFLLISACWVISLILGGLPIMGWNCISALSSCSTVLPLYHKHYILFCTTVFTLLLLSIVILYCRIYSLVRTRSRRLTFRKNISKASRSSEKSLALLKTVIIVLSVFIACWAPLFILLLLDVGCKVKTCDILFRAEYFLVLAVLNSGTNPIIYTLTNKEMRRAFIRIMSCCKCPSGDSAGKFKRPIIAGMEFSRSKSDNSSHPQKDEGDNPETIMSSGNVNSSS
Procedure, shortened: as §1

human S1PR3 receptor = target: T4, human S1PR3 receptor (Homo sapiens, UniProt Q99500); details: (1): determined with method 1; read-out: S1P3 EC50
T4 construct: host or cells: CHO-K1
T4 sequence (Q99500 whole entry): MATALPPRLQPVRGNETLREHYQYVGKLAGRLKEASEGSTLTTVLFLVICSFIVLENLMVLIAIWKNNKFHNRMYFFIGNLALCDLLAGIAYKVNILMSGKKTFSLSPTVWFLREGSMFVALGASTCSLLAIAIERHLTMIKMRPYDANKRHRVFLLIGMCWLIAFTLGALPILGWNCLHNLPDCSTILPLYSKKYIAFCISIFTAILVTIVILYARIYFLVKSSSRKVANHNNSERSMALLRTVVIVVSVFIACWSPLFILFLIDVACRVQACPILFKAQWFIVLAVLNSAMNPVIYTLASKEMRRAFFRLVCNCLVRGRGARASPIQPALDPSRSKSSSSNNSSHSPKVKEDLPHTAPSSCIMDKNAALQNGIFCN
Procedure, shortened: as §1

CC(CC(=O)O)CN1CCc2nc(-c3ccc(OCc4ccc(Cl)cc4)cc3)ncc2C1 (racemic) [Compound 23, 4-(2-(4-((4-chlorobenzyl)oxy)phenyl)-7,8-dihydropyrido[4,3-d]pyrimidin-6(5H)-yl)-3-methylbutanoic acid]
EC50 (human S1PR4 receptor): > 1 µM | EC50 (human S1PR5 receptor): < 0.01 µM | EC50 (human S1PR1 receptor): > 1 µM | EC50 (human S1PR3 receptor): > 1 µM

O=C(O)CC1CC(N2CCc3nc(-c4ccc(OCc5cccc(Cl)c5)cc4)ncc3C2)C1 (stereo not drawn) [Compound 3, 2-(3-(2-(4-((3-chlorobenzyl)oxy)phenyl)-7,8-dihydropyrido[4,3-d]pyrimidin-6(5H)-yl)cyclobutyl)acetic acid]
EC50 (human S1PR4 receptor): > 1 µM | EC50 (human S1PR5 receptor): 0.1 to 1 µM | EC50 (human S1PR1 receptor): > 1 µM | EC50 (human S1PR3 receptor): > 1 µM

O=C(O)C1(CN2CCc3nc(-c4ccc(OCc5ccc(Cl)cc5)cc4)ncc3C2)CC1 [Compound 215, 1-((2-(4-((4-chlorobenzyl)oxy)phenyl)-7,8-dihydropyrido[4,3-d]pyrimidin-6(5H)-yl)methyl)cyclopropanecarboxylic acid]
EC50 (human S1PR4 receptor): > 1 µM | EC50 (human S1PR5 receptor): 1 to 10 µM | EC50 (human S1PR1 receptor): > 1 µM | EC50 (human S1PR3 receptor): > 1 µM

O=C(O)CCN1CCc2nc(-c3ccc(OCc4ccc5c(c4)CCC5)cc3)ccc2C1 [Compound 162, 3-(2-(4-((5-indanyl)methoxy)phenyl)-7,8-dihydro-1,6-naphthyridin-6(5H)-yl)propanoic acid]
EC50 (human S1PR4 receptor): > 1 µM | EC50 (human S1PR5 receptor): < 0.01 µM | EC50 (human S1PR1 receptor): > 1 µM | EC50 (human S1PR3 receptor): > 1 µM

Cc1cc(-c2ccc3c(n2)CCN(CCCC(=O)O)C3)ccc1OCc1ccccc1 [Compound 114, 4-(2-(4-(benzyloxy)-3-methylphenyl)-7,8-dihydro-1,6-naphthyridin-6(5H)-yl)butanoic acid]
EC50 (human S1PR4 receptor): > 1 µM | EC50 (human S1PR5 receptor): < 0.01 µM | EC50 (human S1PR1 receptor): > 1 µM | EC50 (human S1PR3 receptor): > 1 µM

Cc1cc(-c2ncc3c(n2)CCN(CC(C)CC(=O)O)C3)ccc1OCc1cccc(Cl)c1 (stereo not drawn) [Compound 252, 4-(2-(4-((3-chlorobenzyl)oxy)-3-methylphenyl)-7,8-dihydropyrido[4,3-d]pyrimidin-6(5H)-yl)-3-methylbutanoic acid]
EC50 (human S1PR4 receptor): > 1 µM | EC50 (human S1PR5 receptor): < 0.01 µM | EC50 (human S1PR1 receptor): > 1 µM | EC50 (human S1PR3 receptor): > 1 µM

O=C(O)CCN1CCc2nc(-c3ccc(OCc4ccccc4)cc3)cnc2C1 [Compound 177, 3-(2-(4-(benzyloxy)phenyl)-7,8-dihydropyrido[3,4-b]pyrazin-6(5H)-yl)propanoic acid]
EC50 (human S1PR4 receptor): > 1 µM | EC50 (human S1PR5 receptor): < 0.01 µM | EC50 (human S1PR1 receptor): > 1 µM | EC50 (human S1PR3 receptor): > 1 µM

O=C(O)C1CC(N2CCc3nc(C#Cc4ccccc4Cl)ccc3C2)C1 (stereo not drawn) [Compound 126, 3-(2-((2-chlorophenyl)ethynyl)-7,8-dihydro-1,6-naphthyridin-6(5H)-yl)cyclobutanecarboxylic acid]
EC50 (human S1PR4 receptor): > 1 µM | EC50 (human S1PR5 receptor): 1 to 10 µM | EC50 (human S1PR1 receptor): > 1 µM | EC50 (human S1PR3 receptor): > 1 µM

CC(CC(=O)O)CN1CCc2nc(-c3ccc(OCc4cccc(Cl)c4Cl)cc3)ncc2C1 (stereo not drawn) [Compound 268, 4-[2-[4-[(2,3-dichlorophenyl)methoxy]phenyl]-7,8-dihydro-5H-pyrido[4,3-d]pyrimidin-6-yl]-3-methyl-butanoic acid 2,2,2-trifluoroacetic acid salt]
EC50 (human S1PR4 receptor): > 1 µM | EC50 (human S1PR5 receptor): 0.01 to 0.1 µM | EC50 (human S1PR1 receptor): > 1 µM | EC50 (human S1PR3 receptor): > 1 µM

O=C(O)C1CC(N2CCc3nc(Cc4c(F)cccc4F)ncc3C2)C1 (stereo not drawn) [Compound 53, 3-(2-(2,6-difluorobenzyl)-7,8-dihydropyrido[4,3-d]pyrimidin-6(5H)-yl)cyclobutanecarboxylic acid]
EC50 (human S1PR4 receptor): > 1 µM | EC50 (human S1PR5 receptor): 1 to 10 µM | EC50 (human S1PR1 receptor): > 1 µM | EC50 (human S1PR3 receptor): > 1 µM

O=C(O)CCN1CCc2nc(-c3ccc(OCc4ccccc4OC(F)F)cc3)ccc2C1 [Compound 163, 3-(2-(4-((2-difluoromethoxybenzyl)oxy)phenyl)-7,8-dihydro-1,6-naphthyridin-6(5H)-yl)propanoic acid]
EC50 (human S1PR4 receptor): > 1 µM | EC50 (human S1PR5 receptor): < 0.01 µM | EC50 (human S1PR1 receptor): > 1 µM | EC50 (human S1PR3 receptor): > 1 µM

Cc1ccc(COc2ccc(-c3ncc4c(n3)CCN(CC(C)CC(=O)O)C4)cc2)cc1C(F)(F)F (stereo not drawn) [Compound 247, 3-methyl-4-[2-[4-[[4-methyl-3-(trifluoromethyl)phenyl]methoxy]phenyl]-7,8-dihydro-5H-pyrido[4,3-d]pyrimidin-6-yl]butanoic acid 2,2,2-trifluoroacetic acid salt]
EC50 (human S1PR4 receptor): > 1 µM | EC50 (human S1PR5 receptor): < 0.01 µM | EC50 (human S1PR1 receptor): > 1 µM | EC50 (human S1PR3 receptor): > 1 µM

O=C(O)CCN1CCc2nc(-c3ccc(OCc4cccc(F)c4)cc3)ccc2C1 [Compound 133, 3-(2-(4-((3-fluorobenzyl)oxy)phenyl)-7,8-dihydro-1,6-naphthyridin-6(5H)-yl)propanoic acid]
EC50 (human S1PR4 receptor): > 1 µM | EC50 (human S1PR5 receptor): < 0.01 µM | EC50 (human S1PR1 receptor): > 1 µM | EC50 (human S1PR3 receptor): > 1 µM

CC(CC(=O)O)CN1CCc2nc(-c3ccc(OCc4cccc(C(F)(F)F)c4)cc3)ncc2C1 (stereo not drawn) [Compound 238, 3-methyl-4-(2-(4-((3-(trifluoromethyl)benzyl)oxy)phenyl)-7,8-dihydropyrido[4,3-d]pyrimidin-6(5H)-yl)butanoic acid]
EC50 (human S1PR4 receptor): < 1 µM | EC50 (human S1PR5 receptor): < 0.01 µM | EC50 (human S1PR1 receptor): < 1 µM | EC50 (human S1PR3 receptor): > 1 µM

O=C(O)C1CC(N2CCc3nc(C#Cc4cc(F)cc(F)c4)ccc3C2)C1 (stereo not drawn) [Compound 127, 3-(2-((3,5-difluorophenyl)ethynyl)-7,8-dihydro-1,6-naphthyridin-6(5H)-yl)cyclobutanecarboxylic acid]
EC50 (human S1PR4 receptor): > 1 µM | EC50 (human S1PR5 receptor): 1 to 10 µM | EC50 (human S1PR1 receptor): > 1 µM | EC50 (human S1PR3 receptor): > 1 µM

CC(CCC(=O)O)N1CCc2nc(-c3ccc(OCc4ccccc4)cc3)ncc2C1 (stereo not drawn) [Compound 64, 4-(2-(4-(benzyloxy)phenyl)-7,8-dihydropyrido[4,3-d]pyrimidin-6(5H)-yl)pentanoic acid]
EC50 (human S1PR4 receptor): > 1 µM | EC50 (human S1PR5 receptor): < 0.01 µM | EC50 (human S1PR1 receptor): > 1 µM | EC50 (human S1PR3 receptor): > 1 µM

Cc1cc(-c2cc3c(cn2)CN(CCC(=O)O)CC3)ccc1OCc1ccc(Cl)cc1 [Compound 172, 3-(6-(4-((4-chlorobenzyl)oxy)-3-methylphenyl)-3,4-dihydro-2,7-naphthyridin-2(1H)-yl)propanoic acid]
EC50 (human S1PR4 receptor): > 1 µM | EC50 (human S1PR5 receptor): < 0.01 µM | EC50 (human S1PR1 receptor): > 1 µM | EC50 (human S1PR3 receptor): > 1 µM

O=C(O)CCN1CCc2nc(-c3ccc(OCc4cccc(F)c4)cc3)c(F)cc2C1 [Compound 193, 3-(2-(4-((3-fluorobenzyl)oxy)phenyl)-3-fluoro-7,8-dihydro-1,6-naphthyridin-6(5H)-yl)propanoic acid]
EC50 (human S1PR4 receptor): > 1 µM | EC50 (human S1PR5 receptor): < 0.01 µM | EC50 (human S1PR1 receptor): > 1 µM | EC50 (human S1PR3 receptor): > 1 µM

Cc1ccc(COc2ccc(-c3ncc4c(n3)CCN(CC(C)CC(=O)O)C4)cc2)cc1 (stereo not drawn) [Compound 248, 3-methyl-4-(2-(4-((4-methylbenzyl)oxy)phenyl)-7,8-dihydropyrido[4,3-d]pyrimidin-6(5H)-yl)butanoic acid]
EC50 (human S1PR4 receptor): > 1 µM | EC50 (human S1PR5 receptor): < 0.01 µM | EC50 (human S1PR1 receptor): < 1 µM | EC50 (human S1PR3 receptor): > 1 µM

CC(CC(=O)O)CN1CCc2nc(-c3ccc(OCc4ccc(Cl)cc4)cc3F)ncc2C1 (stereo not drawn) [Compound 236, 4-(2-(4-((4-chlorobenzyl)oxy)-2-fluorophenyl)-7,8-dihydropyrido[4,3-d]pyrimidin-6(5H)-yl)-3-methylbutanoic acid]
EC50 (human S1PR4 receptor): > 1 µM | EC50 (human S1PR5 receptor): < 0.01 µM | EC50 (human S1PR1 receptor): > 1 µM | EC50 (human S1PR3 receptor): > 1 µM

CC(CC(=O)O)CN1CCc2nc(-c3ccc(C(F)Cc4ccc(Cl)cc4F)cc3)ncc2C1 (stereo not drawn) [Compound 253]
EC50 (human S1PR4 receptor): > 1 µM | EC50 (human S1PR5 receptor): < 0.01 µM | EC50 (human S1PR1 receptor): > 1 µM | EC50 (human S1PR3 receptor): > 1 µM
